Test results taken from article PMC4226840, “An open-label study to determine the maximum tolerated dose of the multitargeted tyrosine kinase inhibitor CEP-11981 in patients with advanced cancer” (Investigational New Drugs, 2014).

Tests used:
[1] = Plasma pharmacokinetics in patients, single and multiple doses; assay type: in vivo, human; conditions: for Mean (SD) Robs (observed accumulation ratio): multiple doses, AUCτ day 15/AUC0–24 day 1; for Mean (SD) Rpred (predicted accumulation ratio): AUC0–∞/AUC0–24 day 1
Procedure: Pharmacokinetic parameters calculated after multiple doses included AUC0-t, Cmax, Tmax, and t½, and observed accumulation ratio (Robs). […] Pharmacodynamics was assessed by VEGFR-2/KDR inhibitory activity in response to CEP-11981 treatment. […] The venous blood samples for pharmacokinetic-pharmacodynamic analysis were collected on days 1 and 15 of dosing during cycle 1 immediately before dose administration and at 1 h postdose, and on day 43. At each draw, 2 samples were obtained in 6-mL sodium heparinized vacutainers. Plasma was obtained and stored at −70 °C until shipment to the sponsor for analysis.

Tie-2 = test system: Tie-2; parameters: method as in PMID 22148921; conditions: cited from earlier work
VEGFR-2/KDR = assay: Ex vivo bioassay of cellular VEGFR-2/KDR kinase inhibition with patient plasma in TrkA-VEGFR-2/KDR chimeric PAE cells; assay type: cell-based
Procedure: Pharmacokinetic parameters calculated after a single dose of CEP-11981 included area under the plasma drug concentration versus time curve (AUC) from zero to infinity (AUC0-∞), to the last measurable concentration (AUC0-t), and to 24 h (AUC0–24); maximum observed plasma drug concentration (Cmax); time to maximum observed plasma drug concentration (Tmax); terminal elimination half-life (t½); and predicted accumulation ratio (Rpred), which was defined as AUC0–∞ (day 1, cycle 1)/AUC0–24 (day 1, cycle 1). Pharmacokinetic parameters calculated after multiple doses included AUC0-t, Cmax, Tmax, and t½, and observed accumulation ratio (Robs). Robs was defined as AUC for 1 dosing interval following multiple doses (AUCτ; day 15, cycle 1)/AUC0–24 (day 1, cycle 1). […] Pharmacodynamics was assessed by VEGFR-2/KDR inhibitory activity in response to CEP-11981 treatment.
The venous blood samples for pharmacokinetic analysis were collected on days 1 and 15 of dosing during cycle 1 immediately before dose administration and at 0.5, 1, 1.5, 2, 3, 4, 6, 8, 12 (this sample was optional and could be collected from 10 to 14 h), and 24 h postdose, as well as on days 8, 22, 29, and 43. The venous blood samples for pharmacokinetic-pharmacodynamic analysis were collected on days 1 and 15 of dosing during cycle 1 immediately before dose administration and at 1 h postdose, and on day 43. At each draw, 2 samples were obtained in 6-mL sodium heparinized vacutainers. Plasma was obtained and stored at −70 °C until shipment to the sponsor for analysis.
A bioassay with engineered chimeric porcine aortic endothelial (PAE) cell lines stably expressing a TrkA-VEGFR-2/KDR domain was used to evaluate human plasma-associated shifts in cellular IC50 for CEP-11981 inhibition of ligand-stimulated VEGFR-2/KDR phosphorylation. Plasma samples for the bioassay were obtained 1 h postdose and on days 1 and 15; they were collected from patients across cohorts.

[2] = multiple doses (day 15, cycle 1), oral once daily, 3.0 mg/m^2, n = 3
[3] = multiple doses (day 15, cycle 1), oral once daily, 4.2 mg/m^2, n = 3
[4] = multiple doses (day 15, cycle 1), oral once daily, 5.9 mg/m^2, n = 5
[5] = multiple doses (day 15, cycle 1), oral once daily, 11.8 mg/m^2, n = 3
[6] = multiple doses (day 15, cycle 1), oral once daily, 19.7 mg/m^2, n = 3
[7] = multiple doses (day 15, cycle 1), oral once daily, 29.6 mg/m^2, n = 4
[8] = multiple doses (day 15, cycle 1), oral once daily, 41.4 mg/m^2, n = 3
[9] = multiple doses (day 15, cycle 1), oral once daily, 55.0 mg/m^2, n = 4
[10] = multiple doses (day 15, cycle 1), oral once daily, 73.0 mg/m^2, n = 3
[11] = multiple doses (day 15, cycle 1), oral once daily, 126.6 mg/m^2, n = 2
[12] = single dose, oral, 3.0 mg/m^2, n = 3
[13] = single dose, oral, 4.2 mg/m^2, n = 3
[14] = single dose, oral, 5.9 mg/m^2, n = 5
[15] = single dose, oral, 11.8 mg/m^2, n = 3
[16] = single dose, oral, 19.7 mg/m^2, n = 3
[17] = single dose, oral, 29.6 mg/m^2, n = 4
[18] = single dose, oral, 41.4 mg/m^2, n = 3
[19] = single dose, oral, 55.0 mg/m^2, n = 5
[20] = single dose, oral, 73.0 mg/m^2, n = 3
[21] = single dose, oral, 126.6 mg/m^2, n = 2

VEGFR-2/KDR, sequence (P35968 786-1356 limits assumed): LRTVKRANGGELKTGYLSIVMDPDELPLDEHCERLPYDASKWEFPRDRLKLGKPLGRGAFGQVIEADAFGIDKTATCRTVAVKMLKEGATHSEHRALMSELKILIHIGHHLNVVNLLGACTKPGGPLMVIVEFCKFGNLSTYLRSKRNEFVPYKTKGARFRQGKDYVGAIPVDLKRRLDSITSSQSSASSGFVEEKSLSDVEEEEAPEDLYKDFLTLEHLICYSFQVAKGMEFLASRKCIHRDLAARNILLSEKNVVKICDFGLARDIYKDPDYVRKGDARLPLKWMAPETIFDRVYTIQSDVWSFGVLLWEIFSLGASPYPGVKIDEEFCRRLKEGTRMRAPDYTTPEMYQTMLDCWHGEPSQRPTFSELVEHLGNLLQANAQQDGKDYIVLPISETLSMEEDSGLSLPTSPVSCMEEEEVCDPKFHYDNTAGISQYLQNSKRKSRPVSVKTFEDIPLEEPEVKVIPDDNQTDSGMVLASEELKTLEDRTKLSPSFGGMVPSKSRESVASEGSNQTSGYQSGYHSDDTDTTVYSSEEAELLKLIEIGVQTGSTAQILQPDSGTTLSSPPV

11-(2-methylpropyl)-12,13-dihydro-2-methyl-8-(pyrimidin-2-ylamino)-4H-indazolo[5,4-a]pyrrolo[3,4-c]carbazol-4-one [CEP-11981]
Mean (SD) AUC0-24 ([1]; human, in vivo, po, 97.4 mg/m2): 5,320.4 (1,459.11) ng•hr/mL
Mean (SD) Cmax ([1]; human, in vivo, po, 97.4 mg/m2): 526.4 (185.68) ng/mL
Mean (SD) t½ ([1]; human, in vivo, po, 97.4 mg/m2): 10.3 (4.59) hr
Median (range) Tmax ([1]; human, in vivo, po, 97.4 mg/m2): 4.0 (2.0–6.0) hr
Mean (SD) AUCτ [1, 2]: 165.3 (82.98) ng•hr/mL
Mean (SD) Cmax [1, 2]: 16.1 (2.35) ng/mL
Mean (SD) t½ [1, 2]: 8.0 (2.92) hr
Median (range) Tmax [1, 2]: 2.9 (1.5–4.0) hr
Mean (SD) AUCτ [1, 3]: 201.7 (46.72) ng•hr/mL
Mean (SD) Cmax [1, 3]: 24.3 (9.23) ng/mL
Mean (SD) t½ [1, 3]: 9.9 (4.55) hr
Median (range) Tmax [1, 3]: 3.9 (1.5–4.0) hr
Mean (SD) AUCτ [1, 4]: 278.0 (69.45) ng•hr/mL
Mean (SD) Cmax [1, 4]: 32.4 (8.40) ng/mL
Mean (SD) t½ [1, 4]: 6.6 (1.51) hr
Median (range) Tmax [1, 4]: 3.0 (1.3–6.0) hr
Mean (SD) AUCτ [1, 5]: 763.7 (128.14) ng•hr/mL
Mean (SD) Cmax [1, 5]: 98.1 (5.64) ng/mL
Mean (SD) t½ [1, 5]: 12.3 (9.70) hr
Median (range) Tmax [1, 5]: 2.0 (1.6–2.1) hr
Mean (SD) AUCτ [1, 6]: 1,102.3 (734.79) ng•hr/mL
Mean (SD) Cmax [1, 6]: 128.5 (98.34) ng/mL
Mean (SD) t½ [1, 6]: 5.4 (1.20) hr
Median (range) Tmax [1, 6]: 4.0 (1.5–4.0) hr
Mean (SD) AUCτ [1, 7]: 2,923.5 (2,939.79) ng•hr/mL
Mean (SD) Cmax [1, 7]: 218.8 (130.35) ng/mL
Mean (SD) t½ [1, 7]: 8.7 (5.74) hr
Median (range) Tmax [1, 7]: 4.5 (2.0–8.0) hr
Mean (SD) AUCτ [1, 8]: 3,256.0 (1,816.44) ng•hr/mL
Mean (SD) Cmax [1, 8]: 412.6 (93.94) ng/mL
Mean (SD) t½ [1, 8]: 10.3 (6.33) hr
Median (range) Tmax [1, 8]: 2.1 (1.7–3.1) hr
Mean (SD) AUCτ [1, 9]: 4,313.3 (1,091.33) ng•hr/mL
Mean (SD) Cmax [1, 9]: 320.7 (75.09) ng/mL
Mean (SD) t½ [1, 9]: 12.8 (4.32) hr
Median (range) Tmax [1, 9]: 5.2 (3.0–8.0) hr
Mean (SD) AUCτ [1, 10]: 9,429.0 (3,993.74) ng•hr/mL
Mean (SD) Cmax [1, 10]: 713.0 (30.38) ng/mL
Mean (SD) t½ [1, 10]: 13.9 (9.48) hr
Median (range) Tmax [1, 10]: 3.3 (3.1–3.5) hr
Mean (SD) AUCτ [1, 11]: 23,565.0 (0) ng•hr/mL
Mean (SD) Cmax [1, 11]: 1,481.5 (0) ng/mL
Mean (SD) t½ [1, 11]: 14.7 (0) hr
Median (range) Tmax [1, 11]: 8.0 (8.0–8.0) hr
Mean (SD) Robs (observed accumulation ratio) ([1]; oral once daily, 3.0 mg/m^2, n = 3): 1.3 (0.62)
Mean (SD) Robs (observed accumulation ratio) ([1]; oral once daily, 4.2 mg/m^2, n = 3): 1.8 (0.64)
Mean (SD) Robs (observed accumulation ratio) ([1]; oral once daily, 5.9 mg/m^2, n = 5): 1.5 (0.59)
Mean (SD) Robs (observed accumulation ratio) ([1]; oral once daily, 11.8 mg/m^2, n = 3): 1.5 (0.15)
Mean (SD) Robs (observed accumulation ratio) ([1]; oral once daily, 19.7 mg/m^2, n = 3): 1.2 (0.29)
Mean (SD) Robs (observed accumulation ratio) ([1]; oral once daily, 29.6 mg/m^2, n = 4): 1.1 (1.24)
Mean (SD) Robs (observed accumulation ratio) ([1]; oral once daily, 41.4 mg/m^2, n = 3): 1.3 (0.46)
Mean (SD) Robs (observed accumulation ratio) ([1]; oral once daily, 55.0 mg/m^2, n = 4): 1.9 (0.19)
Mean (SD) Robs (observed accumulation ratio) ([1]; oral once daily, 73.0 mg/m^2, n = 3): 1.9 (0.14)
Mean (SD) AUC0-24 [1, 12]: 127.0 (16.09) ng•hr/mL
Mean (SD) Cmax [1, 12]: 13.7 (6.14) ng/mL
Mean (SD) t½ [1, 12]: 8.0 (2.82) hr
Median (range) Tmax [1, 12]: 6.0 (2.0–6.1) hr
Mean (SD) Rpred (predicted accumulation ratio) [1, 12]: 1.2 (0.15)
Mean (SD) AUC0-24 [1, 13]: 119.3 (14.36) ng•hr/mL
Mean (SD) Cmax [1, 13]: 16.8 (4.88) ng/mL
Mean (SD) t½ [1, 13]: 7.8 (3.69) hr
Median (range) Tmax [1, 13]: 4.0 (1.0–6.0) hr
Mean (SD) Rpred (predicted accumulation ratio) [1, 13]: 1.2 (0.12)
Mean (SD) AUC0-24 [1, 14]: 194.8 (66.56) ng•hr/mL
Mean (SD) Cmax [1, 14]: 26.0 (6.53) ng/mL
Mean (SD) t½ [1, 14]: 5.9 (1.06) hr
Median (range) Tmax [1, 14]: 2.1 (1.5–4.0) hr
Mean (SD) Rpred (predicted accumulation ratio) [1, 14]: 1.1 (0.05)
Mean (SD) AUC0-24 [1, 15]: 516.7 (125.82) ng•hr/mL
Mean (SD) Cmax [1, 15]: 84.9 (23.01) ng/mL
Mean (SD) t½ [1, 15]: 6.0 (3.66) hr
Median (range) Tmax [1, 15]: 1.6 (1.5–3.0) hr
Mean (SD) Rpred (predicted accumulation ratio) [1, 15]: 1.1 (0.12)
Mean (SD) AUC0-24 [1, 16]: 874.0 (357.79) ng•hr/mL
Mean (SD) Cmax [1, 16]: 135.7 (76.46) ng/mL
Mean (SD) t½ [1, 16]: 5.1 (1.33) hr
Median (range) Tmax [1, 16]: 4.0 (1.0–4.3) hr
Mean (SD) Rpred (predicted accumulation ratio) [1, 16]: 1.0 (0.06)
Mean (SD) AUC0-24 [1, 17]: 2,376.3 (2,064.06) ng•hr/mL
Mean (SD) Cmax [1, 17]: 266.9 (181.95) ng/mL
Mean (SD) t½ [1, 17]: 8.5 (5.48) hr
Median (range) Tmax [1, 17]: 2.3 (1.0–3.1) hr
Mean (SD) Rpred (predicted accumulation ratio) [1, 17]: 1.2 (0.22)
Mean (SD) AUC0-24 [1, 18]: 2,820.3 (2,070.39) ng•hr/mL
Mean (SD) Cmax [1, 18]: 351.9 (94.39) ng/mL
Mean (SD) t½ [1, 18]: 8.1 (4.54) hr
Median (range) Tmax [1, 18]: 2.0 (1.0–4.0) hr
Mean (SD) Rpred (predicted accumulation ratio) [1, 18]: 1.2 (0.21)
Mean (SD) AUC0-24 [1, 19]: 2,274.0 (666.44) ng•hr/mL
Mean (SD) Cmax [1, 19]: 251.9 (119.68) ng/mL
Mean (SD) t½ [1, 19]: 9.5 (2.57) hr
Median (range) Tmax [1, 19]: 3.0 (3.0–4.0) hr
Mean (SD) Rpred (predicted accumulation ratio) [1, 19]: 1.2 (0.11)
Mean (SD) AUC0-24 [1, 20]: 3,938.7 (1,965.70) ng•hr/mL
Mean (SD) Cmax [1, 20]: 444.2 (149.44) ng/mL
Mean (SD) t½ [1, 20]: 8.1 (2.19) hr
Median (range) Tmax [1, 20]: 4.0 (3.0–4.1) hr
Mean (SD) Rpred (predicted accumulation ratio) [1, 20]: 1.2 (0.10)
Mean (SD) AUC0-24 [1, 21]: 5,767.0 (0) ng•hr/mL
Mean (SD) Cmax [1, 21]: 751.2 (41.49) ng/mL
Median (range) Tmax [1, 21]: 5.0 (2.0–8.0) hr
IC50 (Tie-2): 22 nM
Patients with quintile 5 ex vivo VEGFR-2/KDR inhibition (VEGFR-2/KDR; 97.4 mg/m^2): 3 of 5
Patients with quintile 5 ex vivo VEGFR-2/KDR inhibition (VEGFR-2/KDR; 126.6 mg/m^2): 1 of 1
Inhibition of VEGFR-2/KDR kinase (VEGFR-2/KDR; plasma from lower dose cohorts (3.0, 4.2, 5.9, 11.8, and 19.7 mg/m^2), normalized to predose baseline): Less than 50%
Normalized mean cellular VEGFR-2/KDR inhibition (VEGFR-2/KDR; plasma primarily from 73.0, 97.4, and 126.6 mg/m^2 cohorts (quintile 5)): ≥ 81%
